Measured values as given in patent US20170334804A1, “F-18 LABELED TRACER AND METHODS OF MANUFACTURE” (The General Hospital Corporation, priority 2014, published 2017).

Tested on: patients with stable coronary artery disease (CAD)
Experiment: PET/CT myocardial perfusion imaging in patients with stable CAD, compared with 99mTc Sestamibi SPECT and CTA
Format: in vivo, human
Conditions: for detecting areas of reversible myocardial perfusion: PET with FTPP vs SPECT with 99mTc Sestamibi, baseline and post-adenosine
Experimental: One of the objectives of this study: the PET image properties of FTPP as a myocardial perfusion agent were evaluated in patients with stable coronary artery disease (CAD).
Patients with stable CAD were included in a 3 day study protocol. Safety endpoints included vital signs, 12 lead ECG and clinical laboratory tests. Imaging was performed with Siemens Biograph 64 PET/CT scanner and imaging entailed a CT for positioning, attenuation measurement and evaluation of coronary artery anatomy (day-1). This was followed by baseline and post-adenosine SPECT imaging with ^99mTc Sestamibi. On day 2, 10 mCi of FTPP was administered followed by a second 10 mCi dose of FTPP and PET/CT imaging.

extraction from blood (patients with stable CAD)	heart uptake over time (patients with stable CAD)	imaging window after injection (patients with stable CAD) [min]	target-to-background ratios (patients with stable CAD)	Structure (SMILES)	image resolution, stress PET vs stress MIBI SPECT (FIG. 2, person with chest pain)	stress images, detection of ischemia (FIG. 3, stress images)	detecting areas of reversible myocardial perfusion	blood flow imaging properties (patients with stable CAD, preliminary findings)	safety (vital signs, 12 lead ECG, clinical laboratory tests)
rapid	stable	≤ 30	high	Fc1ccc([P+](c2ccccc2)(c2ccccc2)c2ccccc2)cc1 [FTPP, 4-[^18F]Fluorophenyltriphenylphosphonium ion]	high resolution	confirming ischemia	similarly effective	excellent	safe
				[C-]#[N+]CC(C)(C)OC.[C-]#[N+]CC(C)(C)OC.[C-]#[N+]CC(C)(C)OC.[C-]#[N+]CC(C)(C)OC.[C-]#[N+]CC(C)(C)OC.[C-]#[N+]CC(C)(C)OC.[Tc] [^99mTc Sestamibi, reference compound]			similarly effective		
